From article PMC9735573 (International Journal of Molecular Sciences, 2022)
Where two headings read alike, the source gives them in different places.

How the values were obtained:
[1] = system: Shiga-like toxin-1 (Stx-1), HeLa cells; assay: cells; assay type: cell-based, human; settings: for EC50: Homo sapiens, HeLa, read-out: EC50 (Stx-1 intoxication assay)
[2] = Pharmacokinetic study in mice, Retro-2.1 in PLGA–PEG–PLGA hydrogel, 25 mg/kg SC; assay type: in vivo; settings: for half-life: flip-flop pharmacokinetics, read-out: Thalf (apparent elimination half-life) (converted); for Cmax: mice plasma
Aqueous solubility = assay type: physicochemical
[3] = Characterisation and stability of Retro-2.1 formulation in PEG–PLA micelles; assay type: physicochemical
Method: Retro-2.1 was encapsulated in PEG–PLA micelles using the thin-film hydration method, also known as the solvent casting method. This method allowed us to dissolve 4.55 mg/mL of the drug in 26.4 mg/mL of PEG–PLA solution, with an encapsulation yield of 91% and a drug loading of 15%, as determined with HPLC analysis using a calibration curve (Figure S1). […] As previously described, including for Genexol®-PM, these micelles are likely to be spherical. Although the zeta potential of these micelles was not determined in this study, PEG–PLA micelles are widely described to have a neutral to slightly negatively charged surface. […] However, about 35% of the drug load precipitated upon storage at room temperature for 24 h (Figure S3). Every subsequent formulation was therefore stored at −20 °C and thawed at 4 °C before use.
(§1) Dynamic light scattering experiments were performed using a Vasco Flex particle size analyzer equipped with a 450 nm laser. Data were recorded at 20 °C using a refractive index of 1.331 and a solvent viscosity of 0.982 cP. For each sample, 10 acquisitions were realized using a noise limit of 1% and 200 channels with a time interval of 1 µs. All samples were analyzed at a concentration of 10 mg/mL in 4 mL glass vials (Lab File, Wheaton) unless otherwise noted.
In a round-bottom flask, Retro-2.1 (92 mg, 211 µmol) and PEG–PLA (528 mg, 132 µmol) were dissolved in acetone (20 mL). The solvent was removed under reduced pressure to yield a transparent pale-yellow polymeric film, which was rehydrated with saline (15 mL) at 40 °C. Next, 2M NaOH solution in water was added to reach a pH of 7. The volume was adjusted to 20 mL with saline, and the solution was sterile-filtered on a 0.2 µm membrane (Millex®, Duluth, GA, USA) into several 6 mL sterile vials and stored at −20 °C until further use. The Retro-2.1 concentration was determined using HPLC after dilution of the solution in MeOH. Drug loadings and encapsulation efficiencies were calculated using the following formula:(1) encapsulation yield=100*mdrug dissolved/mdrug addeddrug loading=100* mdrug/mdrug+mpolymer
(§2) A sample of the formulation was placed in a 500 µL Eppendorf tube and stored at −20 °C, 4 °C or room temperature (20–25 °C). At each timepoint, the sample was centrifuged (15,000× g, 5 min, 4 °C) and the Retro-2.1 concentration in the supernatant was determined using HPLC.

[4] = Characterisation and stability of Retro-2.1 formulation in PLGA–PEG–PLGA; assay type: physicochemical
Method: The thin-film rehydration technique was also used to formulate Retro-2.1 in PLGA–PEG–PLGA, using acetone as a dissolution solvent and saline as a rehydration vehicle. As previously described, the polymer was prepared as a 20% (w/v) solution in saline. This solution was able to stably dissolve 3.25 mg/mL of Retro-2.1, with an encapsulation yield of 98% and a drug loading of 1.9%. […] Of note, above 42 °C, the polymer aggregated and separated from water, which is in accordance with other reported polymers with similar structures. The formulation was stable for at least 13 days when stored at 4 °C. However, like the formulation in PEG–PLA, the formulation in PLGA–PEG–PLGA lost 20% of its payload upon storage at 25 °C for 24 h (Figure S10). Subsequent formulations were therefore freshly prepared and stored at 4 °C before use.
as §1
In a round-bottom flask, Retro-2.1 (59.8 mg, 137 µmol) and PLGA–PEG–PLGA (3.00 g, 545 µmol) were dissolved in acetone (15 mL). The solvent was removed under reduced pressure to yield a translucent pale-yellow polymeric film, which was further dried under vacuum for 4 h. The film was rehydrated with saline (15 mL) at room temperature, and 2 M NaOH solution in water was added to reach a pH of 7. The solution was sterile-filtered on a 0.2 µm membrane (Millex®) into 6 mL sterile vials and stored at 4 °C until further use. The Retro-2.1 concentration was determined using HPLC after dilution of the solution in MeCN. Drug loadings and encapsulation efficiencies were calculated, as described before.
as §2

[5] = mouse, in vivo, 2 mg/kg
[6] = mouse, in vivo, ip, 50 mg/kg
[7] = mouse
[8] = human
[9] = system: Shiga-like toxin-1 (Stx-1), HeLa cells; settings: cited from earlier work
in vivo [10] = settings: female, BALB/c, mouse, 2 mg/kg; for half-life: Thalf (elimination half-life)
in vivo [11] = settings: female, BALB/c, mouse, ip, 50 mg/kg
[12] = SC injection of 25 mg/kg of Retro-2.1 in PLGA–PEG–PLGA, mice
[13] = female, BALB/c, mouse, plasma, SC injection of 25 mg/kg of Retro-2.1 in PLGA–PEG–PLGA, mice
[14] = female, BALB/c, mouse, SC injection of 25 mg/kg of Retro-2.1 in PLGA–PEG–PLGA

## Cc1nc(-c2ccc(C3N(C)c4ccc(F)cc4C(=O)N3c3ccccc3)s2)cs1 (centres unmarked) [Retro-2.1, 6-fluoro-1-methyl-2-(5-(2-methylthiazol-4-yl)thiophen-2-yl)-3-phenyl-2,3-dihydroquinazolin-4(1H)-1]
[1]
  EC50: 90 nM
[2]; [12]
  AUCextra: 17%
  VSS: 456 L/kg
[2]; [13]
  AUC: 1420 ng·h/mL
  CL/F: 294 mL/min/kg
  MRT: 26 h
  Tmax: 2 h
  half-life: 19 h
[2]; [14]
  Cmax: 0.0752 µg/mL
[2]; mice, 25 mg/kg SC in PLGA–PEG–PLGA
  duration of sustained release: at least 48 h
[2]; mice, 25 mg/kg SC in PLGA–PEG–PLGA, over 48 h
  signs of pain or acute toxicity: no sign of pain or acute toxicity was observed
Aqueous solubility
  solubility: < 1 µg/mL
[3]; PEG–PLA formulation stored at 4 °C and −20 °C
  formulation stable for: at least 48 h
[3]; PEG–PLA formulation, room temperature, 24 h
  drug load precipitated upon storage: about 35%
[3]; PEG–PLA micelles
  drug loading: 15%
  encapsulation yield: 91%
[3]; Retro-2.1-loaded PEG–PLA micelles
  micelle mean diameter (DLS): 22.5 nm
[3]; in 26.4 mg/mL of PEG–PLA solution, thin-film hydration, HPLC
  drug concentration dissolved in polymer solution: 4550 µg/mL
[4]; 20% (w/v) PLGA–PEG–PLGA in saline
  drug concentration stably dissolved in polymer solution: 3250 µg/mL
[4]; PLGA–PEG–PLGA
  drug loading: 1.9%
  encapsulation yield: 98%
[4]; PLGA–PEG–PLGA formulation stored at 4 °C
  formulation stable for: at least 13 days
[4]; PLGA–PEG–PLGA formulation, 25 °C, 24 h
  payload lost upon storage: 20%
[4]; PLGA–PEG–PLGA formulation, inverted vial method
  temperature at which formulation starts solidifying: 31 °C
[4]; Retro-2.1-loaded PLGA–PEG–PLGA micelles
  micelle mean diameter (DLS): 24.1 nm
[5]; female, BALB/c, ip
  AUCextra: 2.1%
  Thalf (elimination half-life): 6.7 h
  VSS: 26.3 L/kg
  plasmatic concentration 7 h following injection: 21 nM
[5]; female, BALB/c, iv
  AUCextra: 2.3%
  Thalf (elimination half-life): 5 h
  plasmatic concentration 7 h following injection: 6 nM
[5]
  signs of pain or acute toxicity: no sign of pain or acute toxicity was observed
[6]; female, BALB/c
  AUCextra: 0.1%
  Thalf: 3.3 h
  VSS: 2.8 L/kg
[6]
  plasma detectability 24 h after injection: barely detectable
  signs of pain or acute toxicity: no apparent sign of pain or acute toxicity was observed
[7]
  Non-NADPH degradation: < 5%
[7]; microsomes
  Clint: 460 μL.min^−1.mg of protein^−1
[8]
  Non-NADPH degradation: < 5%
[8]; microsomes
  Clint: 27.8 μL.min^−1.mg of protein^−1
[8]; microsomes, 0.75 h
  Metabolic stability at t = 45 min (remaining): 27.4%
[9]
  times more potent than Retro-2: about 100 times
[9]; read-out: EC50 against the Shiga toxin
  EC50: 102 nM
In vivo [10]; ip
  AUC: 322 ng·h/mL
  CL/F: 103 mL/min/kg
  Cmax: 0.304 µg/mL
  MRT: 4.2 h
  Tmax: 5 min
  half-life: 5 h
In vivo [10]; iv
  AUC: 213 ng·h/mL
  Cmax: 0.328 µg/mL
  MRT: 2.9 h
  Tmax: 5 min
  Vd: 27.5 L/kg
  clearance: 157 mL/min/kg
  half-life: 6.7 h
In vivo [11]
  AUC: 18500 ng·h/mL
  CL/F: 45 mL/min/kg
  Cmax: 50.6 µg/mL
  MRT: 1 h
  Tmax: 0.0833 h

## CN1c2ccc(F)cc2C(=O)N(c2ccccc2)C1c1ccc(-c2csc(CO)n2)s1 (centres unmarked) [compound 3]
[1]
  fold less potent than Retro-2.1: 80 fold
  EC50: 7380 nM
[2]; [12]
  AUCextra: 12%
[2]; [13]
  AUC: 621 ng·h/mL
  MRT: 21 h
  Tmax: 2 h
  half-life: 15 h
[2]; [14]
  Cmax: 0.0393 µg/mL
[6]; female, BALB/c
  AUCextra: 0.4%
  Thalf: 3.7 h
In vivo [11]
  AUC: 6700 ng·h/mL
  Cmax: 2.76 µg/mL
  MRT: 3.43 h
  Tmax: 0.25 h
